Experimental data published in DBAASP.
In brackets after ≈: the same amount, converted by molar mass.

Assays:
Test in all cases: ≥ marks a high value that may be exact or a test limit, other limits are often not marked, values filed in µg/mL are converted to µM
[1] = test system: Candida parapsilosis CGMCC 2.3989
[2] = test system: Candida albicans CGMCC 2.2086
[3] = test system: Candida albicans
[4] = test system: Candida tropicalis CGMCC 2.1975
[5] = test system: Klebsiella pneumoniae MTCC 7407
[6] = test system: Corynebacterium glutamicum MTCC 2679
[7] = test system: Pseudomonas aeruginosa MTCC 3542
[8] = test system: Staphylococcus haemolyticus MTCC 3383
[9] = test system: Enterococcus faecalis MTCC 439
[10] = test system: Proteus vulgaris MTCC 1771
[11] = test system: Bordetella bronchiseptica MTCC 6837
[12] = test system: Alkalihalobacillus alcalophilus MTCC 860
[13] = test system: Haemophilus influenzae MTCC 621
[14] = test system: Klebsiella oxytoca MTCC 2275
[15] = test system: Acinetobacter baumannii MTCC 9829
[16] = test system: Alcaligenes faecalis MTCC 1937
[17] = test system: Citrobacter freundii MTCC 1658
[18] = test system: Salmonella enterica MTCC 9844
[19] = test system: Pluralibacter gergoviae MTCC 3826
[20] = test system: Salmonella enterica subsp. enterica serovar Typhimurium ATCC 14028
[21] = test system: Citrobacter koseri MTCC 1657
[22] = test system: Vibrio cholerae MTCC 3904
[23] = test system: Escherichia coli K12 MG1655
[24] = test system: Proteus mirabilis MTCC 3158
[25] = test system: Klebsiella aerogenes MTCC 111
[26] = test system: Shigella boydii MTCC 11947
[27] = test system: Staphylococcus aureus MTCC 3160
[28] = test system: Stenotrophomonas maltophilia MTCC 1890
[29] = test system: Shigella flexneri MTCC 1457
[30] = test system: Pseudomonas aeruginosa PAK
[31] = test system: Escherichia coli W3110
[32] = test system: Streptococcus sanguinis NY101
[33] = test system: Enterococcus faecalis
[34] = test system: Streptococcus mutans UA159
[35] = test system: Staphylococcus aureus
[36] = test system: Salmonella sp.
[37] = test system: Klebsiella pneumoniae ATCC BAA-1705

SMILES: CC[C@H](C)[C@H](NC(=O)CNC(=O)[C@H](CCCCN)NC(=O)[C@@H](NC(=O)[C@H](CC(C)C)NC(=O)[C@H](CC(C)C)NC(=O)[C@@H](NC(=O)[C@H](CCCCN)NC(=O)CNC(=O)[C@@H](NC(=O)[C@@H](N)CCCCN)[C@@H](C)CC)C(C)C)C(C)C)C(=O)N[C@@H](CCCCN)C(N)=O [KIGKVLLVKGIK]
- MIC [1]: ≥ 64 µM
- MIC [2]: ≥ 64 µM
- MIC [3]: > 64 µM
- MIC [4]: ≥ 64 µM

SMILES: CC[C@H](C)[C@H](NC(=O)[C@H](CCCCN)NC(=O)[C@H](CCCCN)NC(=O)[C@H](C)NC(=O)[C@H](CCCCN)NC(=O)[C@H](CO)NC(=O)[C@H](CCCN=C(N)N)NC(=O)[C@H](Cc1c[nH]c2ccccc12)NC(=O)[C@H](CCCCN)NC(=O)[C@H](CCCCN)NC(=O)[C@H](Cc1c[nH]c2ccccc12)NC(=O)[C@H](CCCN=C(N)N)NC(=O)[C@H](CCCCN)NC(=O)[C@@H](N)Cc1ccc(O)cc1)C(=O)N[C@@H](CC(C)C)C(=O)O [YKRWKKWRSKAKKIL]
- MIC [5]: ≥ 63.4 µM
- MIC [6]: 0.99 µM (≈ 2 µg/mL)
- MIC [7]: ≥ 63.4 µM
- MIC [8]: 1.98 µM (≈ 4 µg/mL)
- MIC [9]: ≥ 63.4 µM
- MIC [10]: 31.7 µM (≈ 64 µg/mL)
- MIC [11]: 3.96 µM (≈ 8 µg/mL)
- MIC [12]: 31.7 µM (≈ 64 µg/mL)
- MIC [13]: 15.8 µM (≈ 32 µg/mL)
- MIC [14]: 15.8 µM (≈ 32 µg/mL)
- MIC [15]: 7.92 µM (≈ 16 µg/mL)
- MIC [16]: ≥ 63.4 µM
- MIC [17]: ≥ 63.4 µM
- MIC [18]: 7.92 µM (≈ 16 µg/mL)
- MIC [19]: ≥ 63.4 µM
- MIC [20]: 15.8 µM (≈ 32 µg/mL)
- MIC [21]: 7.92 µM (≈ 16 µg/mL)
- MIC [22]: ≥ 63.4 µM
- MIC [23]: 1.98 µM (≈ 4 µg/mL)
- MIC [24]: ≥ 63.4 µM
- MIC [25]: ≥ 63.4 µM
- MIC [26]: 3.96 µM (≈ 8 µg/mL)
- MIC [27]: ≥ 63.4 µM
- MIC [28]: ≥ 63.4 µM
- MIC [29]: 3.96 µM (≈ 8 µg/mL)

SMILES: CC(C)C[C@H](NC(=O)[C@H](Cc1cnc[nH]1)NC(=O)[C@H](Cc1ccccc1)NC(=O)[C@H](Cc1cnc[nH]1)NC(=O)[C@@H](N)Cc1ccccc1)C(=O)N[C@@H](Cc1cnc[nH]1)C(=O)N[C@@H](Cc1ccccc1)C(N)=O [FHFHLHF]
- MIC [30]: 16.3 µM (≈ 16 µg/mL)
- MIC [31]: 8.13 µM (≈ 7.99 µg/mL)
- MIC [32]: 16.3 µM (≈ 16 µg/mL)
- MIC [33]: 16.3 µM (≈ 16 µg/mL)
- MIC [34]: 8.13 µM (≈ 7.99 µg/mL)
- MIC [35]: 32.5 µM (≈ 32 µg/mL)

SMILES: CC(C)C[C@H](NC(=O)[C@H](CCCCN)NC(=O)[C@H](CC(C)C)NC(=O)[C@@H](N)CC(C)C)C(=O)N[C@@H](Cc1ccccc1)C(=O)N[C@@H](Cc1ccccc1)C(=O)N1CCC[C@H]1C(=O)N[C@@H](Cc1ccccc1)C(=O)N[C@@H](CC(C)C)C(=O)N[C@@H](CCC(=O)O)C(=O)N[C@H](C(=O)NCC(=O)N[C@@H](CCC(=O)O)C(=O)O)[C@@H](C)O [LLKLFFPFLETGE]
- MIC [36]: ≥ 256 µM

SMILES: CC(C)C[C@H](NC(=O)CNC(=O)[C@H](CC(C)C)NC(=O)[C@H](CCCCN)NC(=O)[C@H](C)NC(=O)[C@H](Cc1c[nH]c2ccccc12)NC(=O)[C@H](Cc1c[nH]c2ccccc12)NC(=O)[C@@H](N)Cc1c[nH]c2ccccc12)C(=O)N[C@@H](CCCCN)C(=O)N[C@@H](CC(C)C)C(=O)N[C@@H](CC(C)C)C(=O)N[C@@H](CCCN=C(N)N)C(=O)N[C@@H](Cc1ccc(O)cc1)C(=O)N[C@@H](CCCN=C(N)N)C(=O)N[C@@H](CCCN=C(N)N)C(=O)N[C@@H](Cc1c[nH]c2ccccc12)C(=O)N[C@@H](Cc1ccc(O)cc1)C(=O)O [WWWAKLGLKLLRYRRWY]
- MIC [31]: 4 µM (≈ 9.58 µg/mL)
- MIC [37]: 8 µM (≈ 19.2 µg/mL)

SMILES: CC[C@H](C)[C@H](NC(=O)[C@H](C)NC(=O)[C@H](CC(C)C)NC(=O)[C@H](C)NC(=O)[C@H](CC(C)C)NC(=O)[C@H](CCCCN)NC(=O)[C@H](CC(C)C)NC(=O)[C@H](C)NC(=O)[C@H](CO)NC(=O)[C@H](C)NC(=O)[C@H](CC(C)C)NC(=O)[C@H](CC(C)C)NC(=O)[C@H](CCCCN)NC(=O)[C@H](CCCCN)NC(=O)[C@H](C)NC(=O)[C@@H](NC(=O)[C@@H](N)CCC(=O)O)C(C)C)C(=O)O [EVAKKLLASALKLALAI]
- MIC [5]: ≥ 73.1 µM
- MIC [6]: 18.3 µM (≈ 32 µg/mL)
- MIC [7]: ≥ 73.1 µM
- MIC [8]: ≥ 73.1 µM
- MIC [9]: ≥ 73.1 µM
- MIC [10]: ≥ 73.1 µM
- MIC [11]: 9.13 µM (≈ 16 µg/mL)
- MIC [12]: ≥ 73.1 µM
- MIC [13]: ≥ 36.5 µM
- MIC [14]: ≥ 73.1 µM
- MIC [15]: ≥ 73.1 µM
- MIC [16]: ≥ 73.1 µM
- MIC [17]: ≥ 73.1 µM
- MIC [18]: ≥ 73.1 µM
- MIC [19]: ≥ 73.1 µM
- MIC [20]: > 73.1 µM
- MIC [21]: ≥ 73.1 µM
- MIC [22]: ≥ 73.1 µM
- MIC [23]: ≥ 73.1 µM
- MIC [24]: ≥ 73.1 µM
- MIC [25]: ≥ 73.1 µM
- MIC [26]: ≥ 73.1 µM
- MIC [27]: ≥ 73.1 µM
- MIC [28]: ≥ 73.1 µM
- MIC [29]: ≥ 73.1 µM

SMILES: CC[C@H](C)[C@H](NC(=O)[C@H](C)N)C(=O)N[C@H](C(=O)N[C@@H](CCC(=O)O)C(=O)N[C@@H](CCC(N)=O)C(=O)N[C@@H](CC(C)C)C(=O)N[C@@H](CCCN=C(N)N)C(=O)N[C@@H](CCCCN)C(=O)N[C@@H](CCCN=C(N)N)C(=O)N[C@@H](CS)C(=O)O)C(C)C [AIVEQLRKRC]
- MIC [5]: ≥ 105 µM
- MIC [6]: ≥ 105 µM
- MIC [7]: ≥ 105 µM
- MIC [8]: ≥ 105 µM
- MIC [9]: ≥ 105 µM
- MIC [10]: ≥ 105 µM
- MIC [11]: ≥ 105 µM
- MIC [12]: ≥ 105 µM
- MIC [13]: ≥ 105 µM
- MIC [14]: ≥ 105 µM
- MIC [15]: ≥ 105 µM
- MIC [16]: ≥ 105 µM
- MIC [17]: ≥ 105 µM
- MIC [18]: ≥ 105 µM
- MIC [19]: ≥ 105 µM
- MIC [20]: > 105 µM
- MIC [21]: ≥ 105 µM
- MIC [22]: ≥ 105 µM
- MIC [23]: ≥ 105 µM
- MIC [24]: ≥ 105 µM
- MIC [25]: ≥ 105 µM
- MIC [26]: ≥ 105 µM
- MIC [27]: ≥ 105 µM
- MIC [28]: ≥ 105 µM
- MIC [29]: ≥ 105 µM

SMILES: CC[C@H](C)[C@H](NC(=O)[C@@H](N)CCCCN)C(=O)NCC(=O)N[C@@H](CCCCN)C(=O)N[C@H](C(=O)N[C@@H](CC(C)C)C(N)=O)C(C)C [KIGKVL]
- MIC [1]: ≥ 64 µM
- MIC [2]: ≥ 64 µM
- MIC [3]: > 64 µM
- MIC [4]: ≥ 64 µM

SMILES: CC[C@H](C)[C@H](N)C(=O)N[C@@H](Cc1c[nH]c2ccccc12)C(=O)N[C@@H](Cc1c[nH]c2ccccc12)C(=O)N[C@@H](C)C(=O)N[C@@H](CCCCN)C(=O)N[C@@H](Cc1c[nH]c2ccccc12)C(=O)NCC(=O)N[C@@H](CC(C)C)C(=O)N[C@@H](CCCCN)C(=O)N[C@@H](CC(C)C)C(=O)N[C@@H](CC(C)C)C(=O)N[C@@H](CCCN=C(N)N)C(=O)N[C@@H](Cc1ccc(O)cc1)C(=O)N[C@@H](CCCN=C(N)N)C(=O)N[C@@H](CCCN=C(N)N)C(=O)N[C@H](C(=O)N[C@@H](Cc1ccc(O)cc1)C(=O)O)[C@@H](C)CC [IWWAKWGLKLLRYRRIY]
- MIC [31]: 1 µM (≈ 2.32 µg/mL)
- MIC [37]: 8 µM (≈ 18.6 µg/mL)
